Measured values from ChEMBL document CHEMBL1201862, “PubChem BioAssay data set” (2004).
One block for each molecule: values may come before it. Activity calls are given as the source filed them.

Assays:
[1] = test system: Trypanosoma cruzi; test: anti-trypanosomal activity in host cells – cell-based, plate reader, dry powder, set 3, dose response (AID 493197); type: functional
[2] = T. cruzi infection blockers in NIH3T3 cells – beta-gal luminescence, NIH3T3 host cells, confirmation (AID 2630); type: functional, cell-based; conditions: Mus musculus
[3] = target: G-protein coupled receptor 55 (Homo sapiens, UniProt Q9Y2T6); test: inhibition of LPI-stimulated GPR55 beta-arrestin translocation – imaging, U2OS, beta-arrestin-GFP, LPI agonist, primary screen (AID 2013); type: functional;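 further: antagonist potency measured as reduced agonist-driven arrestin aggregation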
[4] = target: T1, Cannabinoid receptor 1 (Homo sapiens, UniProt P21554); test: SAR analysis of antagonists of the Cannabinoid Receptor 1 using an Image-Based Assay - Set 2. [Related pubchem assays (depositor defined):AID2013, AID2026]; type: functional
[5] = target: T2, G-protein coupled receptor 35 (Homo sapiens, UniProt Q9HC97); test: SAR analysis of Agonists of the GPR35 Receptor using an Image-Based Assay - Set 2. [Related pubchem assays (depositor defined):AID2013, AID2026]; type: functional
[6] = target: T3, Cannabinoid receptor 2 (Homo sapiens, UniProt P34972); test: SAR analysis of antagonists of the Cannabinoid Receptor 2 using an Image-Based Assay. [Related pubchem assays (depositor defined):AID2013, AID2026]; type: functional
[7] = target: T1, Cannabinoid receptor 1; test: SAR analysis of agonists of the Cannabinoid Receptor 1 using an Image-Based Assay - Set 2. [Related pubchem assays (depositor defined):AID2013, AID2026]; type: functional
[8] = target: T2, G-protein coupled receptor 35; test: SAR analysis of Antagonists of the GPR35 Receptor using an Image-Based Assay - Set 3. [Related pubchem assays (depositor defined):AID2013, AID2026]; type: functional
[9] = target: T3, Cannabinoid receptor 2; test: SAR analysis of agonists of the Cannabinoid Receptor 2 using an Image-Based Assay. [Related pubchem assays (depositor defined):AID2013, AID2026]; type: functional
[10] = target: T4, Kappa-type opioid receptor (Homo sapiens, UniProt P41145); type: functional
[11] = target: Beta-galactosidase (Escherichia coli, UniProt Q8VNN2); type: functional
[12] = target: T4, Kappa-type opioid receptor; type: functional; remark: listed apart in the source
[13] = target: Voltage-dependent T-type calcium channel subunit alpha-1H (Homo sapiens, UniProt O95180); type: functional;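 further: channel activity triggered by adding a high calcium stimulation buffer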
[14] = test system: Vero; test: Vero 76 cell viability after compound exposure – Vero 76 cells, synthesized analogs, cytotoxicity control for West Nile virus antiviral project, SAR follow-up (AID 2414); type: functional; conditions: Chlorocebus sabaeus
[15] = test system: Vero; test: Vero cell viability after compound exposure – synthesized analogs, set II, cytotoxicity control for West Nile virus antiviral project, SAR follow-up (AID 2402); type: functional; conditions: Chlorocebus sabaeus
[16] = test system: Vero; test: host cell viability loss, Vero E6 – synthesized analogs, cytotoxicity control for West Nile virus antiviral project, SAR follow-up (AID 2244); type: functional; conditions: Chlorocebus sabaeus
[17] = test system: Vero; test: antiviral protection of cells from WNV – synthesized analogs, SAR follow-up (AID 2238); type: functional, cell-based; conditions: Chlorocebus sabaeus
[18] = test system: Vero; test: inhibition of WNV-induced cytopathic effect – cell-based, CPE readout (AID 1621); type: functional; conditions: Chlorocebus sabaeus
[19] = target: T5, Runt-related transcription factor 1/Core-binding factor subunit beta (Homo sapiens, UniProt Q01196+Q13951); test: Confirmation of compounds inhibiting the binding between the RUNX1 Runt domain and CBFb-SMMHC via a fluorescence resonance energy transfer (FRET) assay. [Related pubchem assays (depositor defined):AID1434, AID1438, AID1496, AID1550, AID1645]; type: protein assay
[20] = target: T5, Runt-related transcription factor 1/Core-binding factor subunit beta; test: disruptors of Runt domain/CBFb-SMMHC interaction – biochemical, FRET, Cerulean-Runt, Venus-CBFb-SMMHC, uHTS, […] (AID 1434); type: protein assay
[21] = target: T5, Runt-related transcription factor 1/Core-binding factor subunit beta; test: Runt domain/CBFb-SMMHC interaction disruptors – biochemical, TR-FRET (AID 1438); type: protein assay
[22] = target: T5, Runt-related transcription factor 1/Core-binding factor subunit beta; test: Confirmation of compounds inhibiting the binding between the RUNX1 Runt domain and CBFb-SMMHC via a time resolved fluorescence resonance energy transfer (TR-FRET) assay. [Related pubchem assays (depositor defined):AID1434, AID1438, AID1496, AID1560, AID1645]; type: protein assay
[23] = test system: Vero; test: viability of Vero cells under compound – cytotoxicity control for flavivirus capping enzyme inhibitors (AID 588742); type: functional; conditions: Chlorocebus sabaeus
[24] = test system: INS1; test: INS-1E survival protection against cytokine death – cell-based, luminescence, retest, dose response (AID 449756); type: functional; conditions: Rattus norvegicus;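 further: cell death triggered by IL-1 beta plus TNF-alpha plus IFN-gamma mixture; protective hits raise ATP signal compared with cytokine alone wells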
[25] = toxicity toward cultured mammalian cells – cell-based, plate reader, cherry-pick samples, cytotoxicity control, dose response (AID 504397); type: functional

T5 sequence (Q01196 whole entry, the tested form may be a part): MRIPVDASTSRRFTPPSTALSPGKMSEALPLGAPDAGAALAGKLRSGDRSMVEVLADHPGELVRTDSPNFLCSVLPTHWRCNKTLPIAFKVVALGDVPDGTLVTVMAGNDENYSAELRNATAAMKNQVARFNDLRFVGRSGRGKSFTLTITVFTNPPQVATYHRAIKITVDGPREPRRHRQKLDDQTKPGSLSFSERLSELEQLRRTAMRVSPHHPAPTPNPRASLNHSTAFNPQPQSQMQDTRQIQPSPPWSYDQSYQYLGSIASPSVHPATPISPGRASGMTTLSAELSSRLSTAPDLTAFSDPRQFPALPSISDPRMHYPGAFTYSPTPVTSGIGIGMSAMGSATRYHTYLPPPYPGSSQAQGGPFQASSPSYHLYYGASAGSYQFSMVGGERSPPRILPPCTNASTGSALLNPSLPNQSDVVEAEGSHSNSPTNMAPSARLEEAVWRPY
T5 sequence (Q13951 whole entry, the tested form may be a part): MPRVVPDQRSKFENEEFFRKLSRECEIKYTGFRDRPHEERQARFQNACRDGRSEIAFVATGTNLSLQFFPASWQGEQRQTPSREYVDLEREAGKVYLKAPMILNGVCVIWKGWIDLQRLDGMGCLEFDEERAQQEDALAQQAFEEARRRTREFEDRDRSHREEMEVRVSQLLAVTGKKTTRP
T1 sequence (P21554 whole entry): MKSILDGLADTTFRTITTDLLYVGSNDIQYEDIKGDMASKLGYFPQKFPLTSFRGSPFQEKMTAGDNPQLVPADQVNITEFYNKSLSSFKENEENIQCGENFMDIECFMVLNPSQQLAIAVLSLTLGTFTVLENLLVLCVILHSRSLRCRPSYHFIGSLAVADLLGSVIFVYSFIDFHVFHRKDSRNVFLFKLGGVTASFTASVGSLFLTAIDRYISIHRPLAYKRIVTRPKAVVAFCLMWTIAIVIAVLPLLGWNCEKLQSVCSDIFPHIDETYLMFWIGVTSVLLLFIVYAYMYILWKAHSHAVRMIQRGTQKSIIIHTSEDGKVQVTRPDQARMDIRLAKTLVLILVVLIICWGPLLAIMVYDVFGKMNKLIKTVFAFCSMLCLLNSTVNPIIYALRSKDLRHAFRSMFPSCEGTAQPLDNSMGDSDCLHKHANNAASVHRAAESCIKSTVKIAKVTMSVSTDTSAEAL
T2 sequence (Q9HC97 whole entry): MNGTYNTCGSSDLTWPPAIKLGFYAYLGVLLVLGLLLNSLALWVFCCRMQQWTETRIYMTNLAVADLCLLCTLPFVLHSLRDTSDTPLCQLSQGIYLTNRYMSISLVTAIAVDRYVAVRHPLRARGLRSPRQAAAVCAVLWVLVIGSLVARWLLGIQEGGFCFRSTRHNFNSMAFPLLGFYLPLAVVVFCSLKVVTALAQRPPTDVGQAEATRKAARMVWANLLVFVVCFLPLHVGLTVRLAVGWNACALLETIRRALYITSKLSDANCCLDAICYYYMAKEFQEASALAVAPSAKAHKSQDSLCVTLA
T4 sequence (P41145 whole entry): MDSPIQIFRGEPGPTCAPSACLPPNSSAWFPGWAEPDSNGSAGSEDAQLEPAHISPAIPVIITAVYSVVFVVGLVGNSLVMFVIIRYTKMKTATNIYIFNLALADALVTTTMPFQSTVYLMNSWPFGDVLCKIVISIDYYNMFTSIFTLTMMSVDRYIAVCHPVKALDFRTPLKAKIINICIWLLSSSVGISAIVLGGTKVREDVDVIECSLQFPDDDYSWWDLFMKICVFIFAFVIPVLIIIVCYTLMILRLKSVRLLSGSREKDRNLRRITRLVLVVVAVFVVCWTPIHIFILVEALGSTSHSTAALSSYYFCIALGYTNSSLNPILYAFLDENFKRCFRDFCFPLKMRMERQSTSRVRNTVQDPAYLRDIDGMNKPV
T3 sequence (P34972 whole entry): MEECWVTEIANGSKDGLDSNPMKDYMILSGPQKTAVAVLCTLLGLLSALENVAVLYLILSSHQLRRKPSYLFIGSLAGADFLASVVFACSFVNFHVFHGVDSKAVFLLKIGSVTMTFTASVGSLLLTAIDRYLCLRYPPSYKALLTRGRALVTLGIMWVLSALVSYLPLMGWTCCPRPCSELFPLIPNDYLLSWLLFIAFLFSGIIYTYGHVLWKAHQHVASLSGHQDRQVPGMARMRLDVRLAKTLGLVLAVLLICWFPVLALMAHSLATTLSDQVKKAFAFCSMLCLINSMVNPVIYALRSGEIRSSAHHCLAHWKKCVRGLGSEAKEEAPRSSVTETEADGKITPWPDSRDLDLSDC
Chain of Beta-galactosidase (Q8VNN2 whole entry): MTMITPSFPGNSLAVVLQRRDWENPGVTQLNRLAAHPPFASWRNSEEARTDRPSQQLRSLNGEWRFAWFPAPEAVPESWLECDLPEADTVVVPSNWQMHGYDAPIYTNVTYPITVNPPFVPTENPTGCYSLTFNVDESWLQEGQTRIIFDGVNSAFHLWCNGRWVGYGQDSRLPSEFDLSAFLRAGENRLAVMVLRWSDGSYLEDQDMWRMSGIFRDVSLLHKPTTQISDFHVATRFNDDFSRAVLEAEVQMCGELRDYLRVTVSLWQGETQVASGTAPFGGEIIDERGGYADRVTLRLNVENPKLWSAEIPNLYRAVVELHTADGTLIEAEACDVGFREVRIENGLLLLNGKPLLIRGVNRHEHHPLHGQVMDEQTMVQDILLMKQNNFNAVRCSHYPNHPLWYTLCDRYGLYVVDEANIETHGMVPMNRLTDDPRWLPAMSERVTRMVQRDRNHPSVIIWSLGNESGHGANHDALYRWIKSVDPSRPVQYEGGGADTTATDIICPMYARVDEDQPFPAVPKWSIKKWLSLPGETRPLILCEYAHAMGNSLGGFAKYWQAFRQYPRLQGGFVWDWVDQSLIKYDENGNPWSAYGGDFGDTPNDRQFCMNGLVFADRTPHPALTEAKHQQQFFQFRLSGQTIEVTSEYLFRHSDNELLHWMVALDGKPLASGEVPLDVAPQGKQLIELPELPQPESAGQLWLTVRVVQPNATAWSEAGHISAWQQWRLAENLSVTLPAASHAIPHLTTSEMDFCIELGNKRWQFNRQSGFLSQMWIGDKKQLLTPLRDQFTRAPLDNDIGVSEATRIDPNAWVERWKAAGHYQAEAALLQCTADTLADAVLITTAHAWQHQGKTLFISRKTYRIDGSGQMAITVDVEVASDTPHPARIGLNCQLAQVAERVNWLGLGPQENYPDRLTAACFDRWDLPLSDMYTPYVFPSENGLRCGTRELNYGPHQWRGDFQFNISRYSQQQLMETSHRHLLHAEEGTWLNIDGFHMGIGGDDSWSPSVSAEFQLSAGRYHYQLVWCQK
Chain of G-protein coupled receptor 55 (Q9Y2T6 whole entry): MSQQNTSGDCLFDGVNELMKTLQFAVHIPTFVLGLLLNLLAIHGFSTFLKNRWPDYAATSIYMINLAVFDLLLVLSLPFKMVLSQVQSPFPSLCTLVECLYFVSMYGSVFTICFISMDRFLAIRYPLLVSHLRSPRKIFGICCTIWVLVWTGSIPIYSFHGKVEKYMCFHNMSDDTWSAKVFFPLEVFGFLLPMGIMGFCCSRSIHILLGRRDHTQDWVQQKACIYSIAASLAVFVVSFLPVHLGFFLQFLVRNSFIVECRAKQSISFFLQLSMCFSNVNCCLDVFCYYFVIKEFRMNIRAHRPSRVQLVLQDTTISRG

SMILES: CCN(CC)C(=O)C1CCCN(Cc2cccc(Cl)c2)C1 (stereo not given)
AC50 [1]: 9.91 µM (active) | EC50 [2]: 1.33 µM (active)

IC50 [3]: 4.28 µM (active) | IC50 [4]: 17.7 µM (inactive) | EC50 [5]: > 32 µM (inactive) | IC50 [6]: > 32 µM (inactive) | EC50 [7]: > 32 µM (inactive) | IC50 [8]: > 32 µM (inactive) | EC50 [9]: > 32 µM (inactive)
SMILES: Cc1ccc(C2(C(=O)N3CCC(n4nc(-c5ccccc5)oc4=O)CC3)CC2)cc1

IC50 [10]: > 31.5 µM (inactive) | EC50 [11]: > 31.5 µM (inactive) | IC50 [12]: > 32 µM | EC50 [13]: 4.73 µM (active)
SMILES: O=C(C1CCCN(S(=O)(=O)Cc2ccccc2)C1)N1CCC(Cc2ccccc2)CC1 (stereo not given)

SMILES: O=C(CSc1nc2ccccc2c(=O)n1-c1ccc(F)cc1)Nc1ccc2c(c1)CCC2
CC50 [14]: > 133 µM (active) | CC50 [15]: > 200 µM (active) | CC50 [16]: > 80 µM (active) | IC50 [17]: 24.5 µM (active) | IC50 [18]: 20.6 µM (active)

SMILES: O=C(c1cccnc1)N(c1cc2sc(=O)oc2c2ccccc12)S(=O)(=O)c1ccccc1
IC50 [19]: > 100 µM (inactive) | IC50 [20]: > 100 µM (inactive) | IC50 [21]: > 100 µM (inactive) | IC50 [22]: > 100 µM (inactive) | CC50 [23]: > 40 µM (active) | AC50 [24]: 6.65 µM (active)

SMILES: C=CCn1c(SCc2ccc(C#N)cc2)nnc1-c1ccc(C)cc1
AC50 [25]: 98.3 µM (active)
